Measured values published in patent US20170273922A1, “UREA AND BIS-UREA BASED COMPOUNDS AND ANALOGUES THEREOF USEFUL IN THE TREATMENT OF ANDROGEN RECEPTOR MEDIATED DISEASES OR DISORDERS” (THE ROYAL INSTITUTION FOR THE ADVACEMENT OF LEARNING/MCGILL …, priority 2014, published 2017).

What was measured:
Type in all cases: cell-based
LNCaP cells = test: MTT assay (cytotoxicity), LNCaP cells; settings: 72 h, Table 2.2
Method: (§1) MTT assays: LNCaP, 22Rv1, Du145, H1975, A549, MB231 and MCF-7 cells are maintained in RPMI 1640 supplemented with 10% FBS. Cells were seeded at a density of 6-7×10^3 cells per well in 96-well plates. After overnight incubation, cells in fresh RPMI 1640 supplemented with 10% FBS were exposed to DMSO vehicle control or test compounds at designated concentrations for 72 h. Viable cells were evaluated by MTT assays. Experiments were performed in triplicate and repeated at least twice.

DU145 cells = test: MTT assay (cytotoxicity), DU145 cells; settings: 72 h, Table 2.2
Method: as §1

[1] = MTT assay (cytotoxicity), LNCaP cells; settings: human, LNCaP cells
Method: as §1

[2] = MTT assay (cytotoxicity), 22Rv1 cells; settings: human, 22Rv1 cells
Method: as §1

SMILES | IC50 at 72 h ([1]; 72 h treatment, Table 6.1) [µM] | IC50 at 72 h ([2]; 72 h treatment, Table 6.1) [µM] | other results
O=C(N/C=C/c1cccc(C(F)(F)F)c1)Nc1cccc(C(F)(F)F)c1 [Compound 403] | – | – | IC50 (LNCaP cells): 12.3 µM; IC50 (DU145 cells): > 20 µM
O=C(N/C=C/c1ccccc1C(F)(F)F)Nc1ccc([N+](=O)[O-])c(C(F)(F)F)c1 [Compound 404] | – | – | IC50 (LNCaP cells): 9.3 µM; IC50 (DU145 cells): 16.4 µM
N#Cc1ccc(NC(=O)N/C=C/c2ccccc2C(F)(F)F)cc1 [Compound 405] | – | – | IC50 (LNCaP cells): 3.4 µM; IC50 (DU145 cells): 8.3 µM
O=C(N/C=C/c1ccccc1C(F)(F)F)Nc1cccc(C(F)(F)F)c1 [Compound 406] | – | – | IC50 (LNCaP cells): 14.4 µM
O=C(N/C=C/c1ccc(C(F)(F)F)cc1)Nc1ccc([N+](=O)[O-])c(C(F)(F)F)c1 [Compound 407] | – | – | IC50 (LNCaP cells): 9.6 µM; IC50 (DU145 cells): 15.3 µM
O=C(N/C=C/c1ccc(C(F)(F)F)cc1)Nc1cccc(C(F)(F)F)c1 [Compound 408] | – | – | IC50 (LNCaP cells): 15.6 µM
O=C(N/C=C/c1cccc(C(F)(F)F)c1)Nc1ccccc1 [Compound 413] | – | – | IC50 (LNCaP cells): > 20 µM
COc1cccc(NC(=O)N/C=C/c2cccs2)c1 [Compound 425] | – | – | IC50 at 72 h ([1]; 72 h, Table 2.4): > 20 µM
O=C(N/C=C/c1cccs1)Nc1ccc2c(c1)OCO2 [Compound 426] | – | – | IC50 at 72 h ([1]; 72 h, Table 2.4): > 20 µM
O=C(N/C=C/c1c[nH]cn1)Nc1ccc([N+](=O)[O-])c(C(F)(F)F)c1 [Compound 454] | – | – | IC50 at 72 h ([1]; 72 h, Table 2.4): > 10 µM
O=C(N/C=C/c1cccc(C(F)(F)F)c1)NCc1cccc(C(F)(F)F)c1 [Compound 460] | – | – | IC50 at 72 h ([1]; 72 h, Table 2.4): 7.9 µM
O=C(N/C=C/c1cc(C(F)(F)F)cc(C(F)(F)F)c1)Nc1ccc2[nH]ccc2c1 [Compound 516] | – | – | IC50 at 72 h ([1]; 72 h, Table 2.3): > 10 µM; IC50 at 72 h ([2]; 72 h, Table 2.3): > 10 µM
O=C(Nc1cc(N2CCOCC2)cc(C(F)(F)F)c1)Nc1ccc(NC(=O)c2ccccc2F)c(C(F)(F)F)c1 [Compound 861] | 9.7 | – | –
CN1CCN(c2cc(NC(=O)Nc3ccc(NC(=O)c4ccccc4F)c(C(F)(F)F)c3)cc(C(F)(F)F)c2)CC1 [Compound 862] | 3.4 | – | –
O=C(N/C=C/c1cccc(OC(F)(F)F)c1)Nc1ccncn1 [Compound 875] | 4.6 | 8.8 | –
O=C(Nc1cc(F)cc(C(F)(F)F)c1)Nc1ccc(NC(=O)c2ccccc2F)c(C(F)(F)F)c1 [Compound 878] | 3.4 | 3.2 | –
O=C(Nc1cccc(C(F)(F)F)c1)Nc1ccc(NC(=O)c2ccc(N3CCOCC3)cc2F)c(C(F)(F)F)c1 [Compound 879] | 6.3 | 6.8 | –
O=C(Nc1ccc(NC(=O)c2ccccc2F)c(C(F)(F)F)c1)Nc1ccccc1C(F)(F)F [Compound 896] | 5.2 | 18.9 | –
O=C(Nc1ccc(C(F)(F)F)cc1)Nc1ccc(NC(=O)c2ccccc2F)c(C(F)(F)F)c1 [Compound 897] | 1.9 | 7 | –
O=C(Nc1cccc(C(F)(F)F)c1)Nc1ccc(NC(=O)Nc2ccc(F)cc2)c(C(F)(F)F)c1 [Compound 898] | 1.4 | 5.1 | –
O=C(Nc1cccc(C(F)(F)F)c1)Nc1ccc(NC(=O)c2c(F)cccc2F)c(C(F)(F)F)c1 [Compound 900] | > 10 | 10.4 | –
O=C(Nc1cccc(C(F)(F)F)c1)Nc1ccc(NC(=O)c2cc(F)ccc2F)c(C(F)(F)F)c1 [Compound 901] | 6.6 | 4.7 | –
O=C(Nc1cccc(C(F)(F)F)c1)Nc1ccc(NC(=O)c2ccc(F)cc2F)c(C(F)(F)F)c1 [Compound 902] | 7.4 | 4.5 | –
O=C(Nc1cccc(C(F)(F)F)c1)Nc1ccc(NC(=O)c2cc(C(F)(F)F)ccc2F)c(C(F)(F)F)c1 [Compound 903] | 6.8 | 5 | –
O=C(Nc1cccc(C(F)(F)F)c1)Nc1ccc(C(=O)Nc2ccc(F)cc2)c(C(F)(F)F)c1 [Compound 904] | 4.1 | 3.2 | –
O=C(Nc1cccc(C(F)(F)F)c1)Nc1ccc(NC(=O)Nc2cccc(F)c2)c(C(F)(F)F)c1 [Compound 905] | 5.5 | 11.4 | –
O=C(Nc1cccc(C(F)(F)F)c1)Nc1ccc(NC(=O)c2cc(Cl)ccc2F)c(C(F)(F)F)c1 [Compound 907] | 4.2 | 4.2 | –
O=C(Nc1cccc(C(F)(F)F)c1)Nc1ccc(NC(=O)c2cccnc2F)c(C(F)(F)F)c1 [Compound 911] | 13.8 | 10 | –
O=C(Nc1cccc(C(F)F)c1)Nc1ccc(NC(=O)c2ccccc2F)c(C(F)(F)F)c1 [Compound 912] | 11.6 | 16 | –
O=C(Nc1cccc(C(F)(F)F)c1)Nc1ccc(F)c(NC(=O)c2c(F)cccc2F)c1 [Compound 913] | 12.3 | 14.2 | –
